Laboratory results published in ChEMBL document CHEMBL5126523, “Recent advances in DDR (DNA damage response) inhibitors for cancer therapy” (Eur J Med Chem, 2022).
One block for each compound: values may come before it.

Columns and labels:
[1] = Cmax in overnight fasted rat at 5 mg/kg, po via gavage measured for 0.25 to 24 hrs by LC/MS/MS analysis; assay type: ADME, organism-based; parameters: dose 5 mg/kg, time upper 24 hrs, time lower 0.25 hrs, route po; details: in vivo
[2] = AUC (0 to last) in overnight fasted rat at 5 mg/kg, po via gavage measured for 0.25 to 24 hrs by LC/MS/MS analysis; assay type: ADME, organism-based; parameters: time upper 24 hrs, dose 5 mg/kg, time lower 0.25 hrs, route po; details: in vivo
Wee1-like protein kinase [3] = molecular target: T1, Wee1-like protein kinase (Homo sapiens, UniProt P30291); assay: Displacement of tracer 178 from N-terminal GST-fused human WEE1 (215 to 646 residues) expressed in baculovirus expression system preincubated for 5 mins followed by tracer addition measured after 60 mins by Lantha Screen EU assay
[4] = molecular target: T2, Protein cereblon/Wee1-like protein kinase (Homo sapiens, UniProt P30291+Q96SW2); assay: PROTAC activity at CRBN/recombinant WEE1 (unknown origin) assessed as induction of WEE1 degradation by FRET based Lantha Screen assay; assay type: protein assay
[5] = molecular target: T2, Protein cereblon/Wee1-like protein kinase; assay: PROTAC activity at CRBN/WEE1 in human […] assessed as induction of WEE1 degradation treated for 5 hrs by Western blot analysis; assay type: cell-based
HT-29 = assay: Antitumor activity against human HT-29 cells xenografted in BALB/c mouse assessed as tumor growth inhibition relative to control; assay type: functional
[6] = AUC (0 to last) in Sprague-Dawley rat at 10 mg/kg, iv by LC-MS/MS analysis; assay type: ADME, organism-based; parameters: time 0 - last, dose 10 mg/kg, route iv; details: in vivo
[7] = molecular target: Serine/threonine-protein kinase Chk1 (Homo sapiens, UniProt O14757); assay: Inhibition of N-terminal GST-tagged full-length recombinant human CHK1 expressed in baculovirus infected Sf9 insect cells using FAM-P10 peptide as substrate preincubated for 10 mins followed by substrate addition measured after 60 mins by ADP-Glo assay
LoVo [8] = assay: Inhibition of cell growth in human LoVo cells assessed as measuring ATP content incubated for 3 days by Cell Titer Glo assay; assay type: functional, cell-based; details: 72 h
[9] = Half life in overnight fasted Sprague-Dawley rat at 2 mg/kg, po via gavage measured for 0.25 to 24 hrs by LC/MS/MS analysis; assay type: ADME, organism-based; details: in vivo, time 0.25-24 hrs
ATR/ATRIP = ATR/ATRIP (Homo sapiens, UniProt Q13535); assay: Inhibition of human FLAG-tagged ATR/c-Myc-tagged ATRIP expressed in mammalian expression system using p53 as substrate incubated for 2 hrs by fluorescence based assay
[10] = AUC in overnight fasted Sprague-Dawley rat at 2 mg/kg, po via gavage measured for 0.25 to 24 hrs by LC/MS/MS analysis; assay type: ADME, organism-based; parameters: time 0.25-24 hrs, dose 2 mg/kg, route po; details: in vivo
[11] = Cmax in overnight fasted Sprague-Dawley rat at 2 mg/kg, po via gavage measured for 0.25 to 24 hrs by LC/MS/MS analysis; assay type: ADME, organism-based; parameters: dose 2 mg/kg, time upper 24 hrs, time lower 0.25 hrs, route po; details: in vivo
[12] = molecular target: DNA-dependent protein kinase catalytic subunit (Homo sapiens, UniProt P78527); assay: Inhibition of DNA-PK (unknown origin)
[13] = Half life in mouse at 0.4 mg/kg, iv; assay type: ADME, organism-based; details: in vivo
[14] = AUC (0 to last) in mouse at 0.4 mg/kg, iv; assay type: ADME, organism-based; parameters: time 0 - last, dose 0.4 mg/kg, route iv; details: in vivo
[15] = Oral bioavailability in BALB/c nude mouse at 1 mg/kg, iv measured for 0.08 to 24 hrs by LC-MS/MS analysis; assay type: ADME, organism-based; details: in vivo, time 0.08-24 hrs
LoVo [16] = assay: Antitumor activity against human LoVo cells xenografted in BALB/c nude mouse assessed as tumor growth inhibition at 40 mg/kg,iv bid by vernier caliper method relative to control; assay type: functional; details: read-out: TGI
[17] = Half life in BALB/c nude mouse at 1 mg/kg, iv measured for 0.08 to 24 hrs by LC-MS/MS analysis; assay type: ADME, organism-based; details: in vivo, time 0.08-24 hrs
Wee1-like protein kinase [18] = molecular target: T1, Wee1-like protein kinase; assay: Inhibition of WEE1 (unknown origin) using LSNLYHQGKFLQTFCGSPLYRRR polypeptide as substrate incubated for 40 mins in presence of [gamma-33P]-ATP by scintillation counting method
[19] = AUC (0 to last) in BALB/c nude mouse at 1 mg/kg, iv measured for 0.08 to 24 hrs by LC-MS/MS analysis; assay type: ADME, organism-based; parameters: time 0.08-24 hrs, dose 1 mg/kg, route iv; details: in vivo
[20] = Half life in Sprague-Dawley rat at 10 mg/kg, iv by LC-MS/MS analysis; assay type: ADME, organism-based; details: in vivo
[21] = Half life in BALB/c mouse at 2 mg/kg, po by LC-MS/MS analysis; assay type: ADME, organism-based; details: in vivo
[22] = Half life in BALB/c mouse at 0.4 mg/kg, iv by LC-MS/MS analysis; assay type: ADME, organism-based; details: in vivo
[23] = Cmax in BALB/c mouse at 2 mg/kg, po by LC-MS/MS analysis; assay type: ADME, organism-based; parameters: dose 2 mg/kg, route po; details: in vivo
[24] = Oral bioavailability in BALB/c mouse at 2 mg/kg by LC-MS/MS analysis; assay type: ADME, organism-based; details: in vivo
[25] = AUC (0 to last) in BALB/c mouse at 0.4 mg/kg, iv by LC-MS/MS analysis; assay type: ADME, organism-based; parameters: time 0 - last, dose 0.4 mg/kg, route iv; details: in vivo
[26] = AUC (0 to last) in BALB/c mouse at 2 mg/kg, po by LC-MS/MS analysis; assay type: ADME, organism-based; parameters: time 0 - last, dose 2 mg/kg, route po; details: in vivo
NCI-H1703 = assay: Antitumor activity against human NCI-H1703 cells xenografted in BALB/c mouse assessed as tumor growth inhibition at 90 mg/kg, bid measured on day 21 by vernier caliper method relative to control; assay type: functional; details: NCI-H1703, 504 h, read-out: TGI
[27] = Tmax in BALB/c mouse at 2 mg/kg, po by LC-MS/MS analysis; assay type: ADME, organism-based; details: in vivo
[28] = molecular target: T3, Serine/threonine-protein kinase ATR (Homo sapiens, UniProt Q13535); assay: Inhibition of ATR (unknown origin)-driven CHK1 phosphorylation
[29] = molecular target: T3, Serine/threonine-protein kinase ATR; assay: Binding affinity to ATR (unknown origin) assessed as inhibition constant
[30] = Half life in ICR mouse at 3 mg/kg, iv measured for 2 to 1440 mins; assay type: ADME, organism-based; details: in vivo, time 2-1440 min
[31] = Half life in ICR mouse at 10 mg/kg, po measured for 5 to 1440 mins; assay type: ADME, organism-based; details: in vivo, time 5-1440 min
[32] = Tmax in ICR mouse at 10 mg/kg, po measured for 5 to 1440 mins; assay type: ADME, organism-based; details: in vivo, time 5-1440 min
[33] = AUC (0 to last) in ICR mouse at 3 mg/kg, iv measured for 2 to 1440 mins; assay type: ADME, organism-based; parameters: time 2-1440 min, dose 3 mg/kg, route iv; details: in vivo
[34] = Cmax in ICR mouse at 10 mg/kg, po measured for 5 to 1440 mins; assay type: ADME, organism-based; parameters: time upper 1440 min, dose 10 mg/kg, time lower 5 min, route po; details: in vivo
[35] = Cmax in ICR mouse at 3 mg/kg, iv measured for 2 to 1440 mins; assay type: ADME, organism-based; parameters: time upper 1440 min, dose 3 mg/kg, time lower 2 min, route iv; details: in vivo
[36] = Oral bioavailability in ICR mouse at 10 mg/kg measured for 5 to 1440 mins; assay type: ADME, organism-based; details: in vivo, time 5-1440 min
[37] = AUC (0 to last) in ICR mouse at 10 mg/kg, po measured for 5 to 1440 mins; assay type: ADME, organism-based; parameters: time 5-1440 min, dose 10 mg/kg, route po; details: in vivo
[38] = Tmax in ICR mouse at 3 mg/kg, iv measured for 2 to 1440 mins; assay type: ADME, organism-based; details: in vivo, time 2-1440 min
Wee1-like protein kinase [39] = molecular target: T1, Wee1-like protein kinase; assay: Inhibition of N-terminal GST-tagged wild-type WEE1 (215 to 646 residues) (unknown origin) expressed in Sf21 insect cells incubated for 60 mins in presence of ATP by ELISA

T1 sequence (P30291 whole entry, the tested form may be a part): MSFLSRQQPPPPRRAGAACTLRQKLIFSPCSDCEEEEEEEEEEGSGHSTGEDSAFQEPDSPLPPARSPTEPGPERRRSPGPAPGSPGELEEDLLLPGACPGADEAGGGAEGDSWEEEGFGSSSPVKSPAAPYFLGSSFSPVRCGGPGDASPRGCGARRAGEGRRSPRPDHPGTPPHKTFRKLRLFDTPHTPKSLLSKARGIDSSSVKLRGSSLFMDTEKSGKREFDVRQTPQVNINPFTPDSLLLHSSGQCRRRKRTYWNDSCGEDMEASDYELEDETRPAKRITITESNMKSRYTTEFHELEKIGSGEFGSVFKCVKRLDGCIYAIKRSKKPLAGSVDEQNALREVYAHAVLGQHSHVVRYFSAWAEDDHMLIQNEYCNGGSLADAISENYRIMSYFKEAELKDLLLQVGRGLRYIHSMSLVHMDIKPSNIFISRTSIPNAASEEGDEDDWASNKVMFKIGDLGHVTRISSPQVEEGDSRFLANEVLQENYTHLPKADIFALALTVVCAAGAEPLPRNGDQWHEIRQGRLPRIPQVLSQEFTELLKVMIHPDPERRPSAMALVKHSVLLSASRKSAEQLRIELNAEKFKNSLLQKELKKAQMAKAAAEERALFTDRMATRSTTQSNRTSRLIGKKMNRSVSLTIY
T3 sequence (Q13535 whole entry): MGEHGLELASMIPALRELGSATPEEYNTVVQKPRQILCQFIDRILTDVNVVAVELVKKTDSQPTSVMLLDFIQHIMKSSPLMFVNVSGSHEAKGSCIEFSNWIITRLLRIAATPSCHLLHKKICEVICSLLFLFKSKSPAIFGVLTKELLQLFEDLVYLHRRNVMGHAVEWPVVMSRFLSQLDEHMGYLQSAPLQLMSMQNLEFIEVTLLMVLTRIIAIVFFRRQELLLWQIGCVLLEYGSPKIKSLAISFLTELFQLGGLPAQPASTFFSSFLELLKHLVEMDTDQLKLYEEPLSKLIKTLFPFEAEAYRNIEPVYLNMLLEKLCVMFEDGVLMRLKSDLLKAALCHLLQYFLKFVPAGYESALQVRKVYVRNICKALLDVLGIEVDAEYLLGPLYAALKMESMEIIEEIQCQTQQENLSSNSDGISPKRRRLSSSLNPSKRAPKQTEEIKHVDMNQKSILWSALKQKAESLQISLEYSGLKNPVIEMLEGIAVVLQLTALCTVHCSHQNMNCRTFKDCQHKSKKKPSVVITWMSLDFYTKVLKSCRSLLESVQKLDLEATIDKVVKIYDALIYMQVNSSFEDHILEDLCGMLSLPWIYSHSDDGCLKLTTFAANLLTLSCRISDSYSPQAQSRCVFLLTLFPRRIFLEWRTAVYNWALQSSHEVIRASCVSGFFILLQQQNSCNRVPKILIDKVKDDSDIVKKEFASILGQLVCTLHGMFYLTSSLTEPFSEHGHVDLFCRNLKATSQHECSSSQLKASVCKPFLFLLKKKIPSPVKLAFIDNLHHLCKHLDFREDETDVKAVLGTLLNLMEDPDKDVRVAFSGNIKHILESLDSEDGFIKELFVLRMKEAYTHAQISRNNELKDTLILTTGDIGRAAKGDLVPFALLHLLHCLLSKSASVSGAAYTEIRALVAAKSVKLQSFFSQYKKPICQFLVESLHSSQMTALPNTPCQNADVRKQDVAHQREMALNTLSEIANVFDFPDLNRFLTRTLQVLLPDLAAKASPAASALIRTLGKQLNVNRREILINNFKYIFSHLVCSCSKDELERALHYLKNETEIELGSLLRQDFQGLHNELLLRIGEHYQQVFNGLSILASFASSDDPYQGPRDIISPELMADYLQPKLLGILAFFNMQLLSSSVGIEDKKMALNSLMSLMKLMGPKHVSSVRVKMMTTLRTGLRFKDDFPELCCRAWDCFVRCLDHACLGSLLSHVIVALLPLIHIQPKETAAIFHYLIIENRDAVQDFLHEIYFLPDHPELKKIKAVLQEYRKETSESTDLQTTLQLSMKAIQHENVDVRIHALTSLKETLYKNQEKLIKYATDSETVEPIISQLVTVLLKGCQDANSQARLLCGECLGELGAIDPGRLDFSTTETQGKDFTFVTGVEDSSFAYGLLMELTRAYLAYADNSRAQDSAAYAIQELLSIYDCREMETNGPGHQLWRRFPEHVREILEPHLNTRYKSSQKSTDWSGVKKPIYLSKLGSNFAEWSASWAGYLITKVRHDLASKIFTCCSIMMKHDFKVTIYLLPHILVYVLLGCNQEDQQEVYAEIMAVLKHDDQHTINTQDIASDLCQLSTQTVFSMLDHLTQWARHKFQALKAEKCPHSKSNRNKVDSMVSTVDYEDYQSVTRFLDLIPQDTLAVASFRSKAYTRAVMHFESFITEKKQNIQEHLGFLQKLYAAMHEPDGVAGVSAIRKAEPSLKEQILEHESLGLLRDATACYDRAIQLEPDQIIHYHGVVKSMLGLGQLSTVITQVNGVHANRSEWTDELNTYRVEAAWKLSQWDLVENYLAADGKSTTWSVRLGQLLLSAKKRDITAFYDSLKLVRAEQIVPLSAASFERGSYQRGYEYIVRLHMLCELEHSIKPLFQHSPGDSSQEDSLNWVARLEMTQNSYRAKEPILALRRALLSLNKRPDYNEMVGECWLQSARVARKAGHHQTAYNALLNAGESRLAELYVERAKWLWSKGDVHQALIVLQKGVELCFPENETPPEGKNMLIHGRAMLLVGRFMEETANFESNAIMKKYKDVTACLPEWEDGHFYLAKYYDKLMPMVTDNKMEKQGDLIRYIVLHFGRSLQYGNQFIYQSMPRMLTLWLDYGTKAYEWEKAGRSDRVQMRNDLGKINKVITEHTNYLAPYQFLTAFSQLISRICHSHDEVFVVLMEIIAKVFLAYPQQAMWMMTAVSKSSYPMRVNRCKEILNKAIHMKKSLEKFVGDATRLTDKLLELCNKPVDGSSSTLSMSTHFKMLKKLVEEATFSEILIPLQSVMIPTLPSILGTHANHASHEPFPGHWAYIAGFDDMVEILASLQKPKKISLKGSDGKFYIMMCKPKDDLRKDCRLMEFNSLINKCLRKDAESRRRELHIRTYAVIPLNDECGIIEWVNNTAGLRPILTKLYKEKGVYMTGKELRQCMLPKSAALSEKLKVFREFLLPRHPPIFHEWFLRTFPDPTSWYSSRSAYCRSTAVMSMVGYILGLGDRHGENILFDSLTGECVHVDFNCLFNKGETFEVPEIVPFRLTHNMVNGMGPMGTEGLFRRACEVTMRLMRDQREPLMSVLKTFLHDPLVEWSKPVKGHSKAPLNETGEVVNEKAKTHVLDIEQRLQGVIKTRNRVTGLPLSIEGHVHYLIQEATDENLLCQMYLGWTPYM
Serine/threonine-protein kinase Chk1, sequence (O14757 whole entry): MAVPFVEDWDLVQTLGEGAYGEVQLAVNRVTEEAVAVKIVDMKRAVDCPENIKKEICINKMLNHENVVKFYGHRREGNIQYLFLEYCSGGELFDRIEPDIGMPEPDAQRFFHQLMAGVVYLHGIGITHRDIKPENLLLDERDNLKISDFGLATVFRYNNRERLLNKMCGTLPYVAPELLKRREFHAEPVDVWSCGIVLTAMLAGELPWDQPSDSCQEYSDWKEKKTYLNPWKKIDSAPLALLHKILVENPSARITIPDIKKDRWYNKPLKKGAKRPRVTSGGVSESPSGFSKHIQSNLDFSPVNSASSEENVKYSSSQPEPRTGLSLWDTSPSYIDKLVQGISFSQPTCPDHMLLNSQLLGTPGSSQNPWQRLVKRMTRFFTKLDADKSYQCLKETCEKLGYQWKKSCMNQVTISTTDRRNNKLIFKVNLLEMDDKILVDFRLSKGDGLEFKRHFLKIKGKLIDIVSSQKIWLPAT
T2 sequence (P30291 whole entry): as the sequence (P30291 whole entry, the tested form may be a part) above
T2 sequence (Q96SW2 whole entry): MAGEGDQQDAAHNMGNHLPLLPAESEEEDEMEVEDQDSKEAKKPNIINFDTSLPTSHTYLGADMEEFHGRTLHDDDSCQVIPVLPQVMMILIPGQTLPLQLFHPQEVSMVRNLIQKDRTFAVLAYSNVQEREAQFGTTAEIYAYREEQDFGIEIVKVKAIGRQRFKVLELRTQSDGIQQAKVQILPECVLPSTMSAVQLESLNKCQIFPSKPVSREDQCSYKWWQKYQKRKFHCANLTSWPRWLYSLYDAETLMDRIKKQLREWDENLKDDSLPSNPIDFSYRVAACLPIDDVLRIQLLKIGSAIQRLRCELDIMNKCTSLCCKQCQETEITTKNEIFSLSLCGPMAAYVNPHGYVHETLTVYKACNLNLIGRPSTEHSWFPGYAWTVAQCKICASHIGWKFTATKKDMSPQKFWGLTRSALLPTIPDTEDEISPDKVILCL
ATR/ATRIP, sequence (Q13535 whole entry): as the sequence (Q13535 whole entry) above
ATR/ATRIP, sequence (Q8WXE1 whole entry, further chain): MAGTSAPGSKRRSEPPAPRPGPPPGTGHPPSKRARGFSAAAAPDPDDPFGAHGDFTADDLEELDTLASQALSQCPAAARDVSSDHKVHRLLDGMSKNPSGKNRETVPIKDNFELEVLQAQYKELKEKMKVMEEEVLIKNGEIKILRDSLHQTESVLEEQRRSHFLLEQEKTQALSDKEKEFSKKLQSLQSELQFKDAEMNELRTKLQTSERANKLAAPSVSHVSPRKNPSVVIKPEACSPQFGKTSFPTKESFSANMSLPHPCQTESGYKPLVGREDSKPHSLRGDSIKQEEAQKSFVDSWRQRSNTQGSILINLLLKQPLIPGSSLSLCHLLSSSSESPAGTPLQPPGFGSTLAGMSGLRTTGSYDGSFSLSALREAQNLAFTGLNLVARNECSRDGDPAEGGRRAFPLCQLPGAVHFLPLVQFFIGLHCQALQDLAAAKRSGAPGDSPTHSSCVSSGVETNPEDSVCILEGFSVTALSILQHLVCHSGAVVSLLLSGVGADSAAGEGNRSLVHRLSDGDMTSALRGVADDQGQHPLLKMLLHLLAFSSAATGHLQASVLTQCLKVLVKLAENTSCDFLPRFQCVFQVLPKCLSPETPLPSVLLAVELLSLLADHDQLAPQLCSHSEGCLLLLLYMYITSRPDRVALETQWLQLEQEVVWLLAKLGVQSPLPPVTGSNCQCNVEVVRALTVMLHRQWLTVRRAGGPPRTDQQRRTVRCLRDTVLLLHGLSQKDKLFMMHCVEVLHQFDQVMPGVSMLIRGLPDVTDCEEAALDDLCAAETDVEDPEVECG

Cmax [1]: 163 nM | AUC(0-t) [2]: 4070 ng·h/mL | IC50 (Wee1-like protein kinase [3]): 1.03 nM
SMILES: CN1CCC2(CC1)CCN(c1ccc(Nc3ncc4cc(C5CC5)n(-c5cccc(C(C)(C)O)n5)c4n3)cc1)CC2

IC50 [4]: 3.58 nM | EC50 [5]: 100 nM
SMILES: C=CCn1c(=O)c2cnc(Nc3ccc(N4CCN(CCCNc5cccc6c5C(=O)N(C5CCC(=O)NC5=O)C6=O)CC4)cc3)nc2n1-c1cccc(C(C)(C)O)n1 (configuration not stated)

AUC(0-t) [6]: 4640 ng·h/mL | IC50 [7]: < 1 nM
SMILES: COc1cc(F)cc(OCCCN)c1-c1cc(Nc2cnc(C#N)cn2)n[nH]1
TGI (HT-29): 51%

IC50 (LoVo [8]): 124 nM | half-life [9]: 134 min | IC50 (ATR/ATRIP): 15 nM | AUC [10]: 2710 ng·h/mL | Cmax [11]: 674 ng/mL
SMILES: C[C@@H]1COCCN1c1nc(-c2ccnn2C)c2c(n1)c(-c1ccn[nH]1)nn2C

IC50 [12]: 29 nM | half-life [13]: 35.4 min | AUC(0-t) [14]: 2260 ng·h/mL
SMILES: COc1ccc(C2(c3cc(-c4ncnc5cc(N6CCOCC6)ccc45)c(F)cc3Cl)CC2)nn1

bioavailability [15]: 62.4% | half-life [17]: 101 min | IC50 (Wee1-like protein kinase [18]): 29 nM | AUC(0-t) [19]: 6.04 µM·h
SMILES: CN1CCN(c2ccc(Nc3ncc4c(=O)n5n(c4n3)-c3cccc(n3)[C@@](C)(O)CCC/C=C\C5)cc2)CC1
inhibition in vivo at 40 mg/kg (LoVo [16]): 84.7%

Cmax [1]: 117 nM | AUC(0-t) [2]: 4580 ng·h/mL
SMILES: CN1CCN(C2CCN(c3ccc(Nc4ncc5c(F)c(C6CC6)n(-c6cccc(C(C)(C)O)n6)c5n4)cc3F)CC2)CC1

half-life [20]: 318 min | AUC(0-t) [6]: 2990 ng·h/mL | IC50 [7]: < 50 nM
SMILES: CCOC(=O)NCCCOc1cc(F)cc(OC)c1-c1cc(Nc2cnc(C#N)cn2)n[nH]1

IC50 (Wee1-like protein kinase [18]): 57 nM
SMILES: CN1CC2CN(c3ccc(Nc4ncc5c(=O)n6n(c5n4)-c4cccc(n4)C(C)(O)CCC/C=C\C6)cc3)CC2C1 (configuration not stated)

half-life [21]: 231 min | half-life [22]: 76.8 min | Cmax [23]: 2170 nM | bioavailability [24]: 44.5% | AUC(0-t) [25]: 1.66 µM·h | AUC(0-t) [26]: 3.49 µM·h | Tmax [27]: 15 min
SMILES: Cc1cc2ncnn2cc1Nc1ncc2c(n1)n(N1CC3CCC(C1)O3)c(=O)n2C
inhibition in vivo at 90 mg/kg (NCI-H1703): 79.4%

IC50 [28]: 8 nM | Ki [29]: < 0.15 nM
SMILES: Nc1nn2cc(F)cnc2c1C(=O)Nc1cncc(F)c1N1CCC(C(=O)N2CCN(C3COC3)CC2)CC1 [M4344]

half-life [30]: 43.8 min | half-life [31]: 57 min | Tmax [32]: 55.2 min | AUC(0-t) [33]: 153 ng·h/mL | Cmax [34]: 266 nM | Cmax [35]: 430 nM | bioavailability [36]: 63.7% | AUC(0-t) [37]: 326 ng·h/mL | Tmax [38]: 1.8 min | IC50 (Wee1-like protein kinase [39]): 3.12 nM
SMILES: C=CCn1c(=O)c2cnc(Nc3ccc(N4C[C@H]5CN(CC6CC6)C[C@H]5C4)cc3)nc2n1-c1ccc(C(C)(C)O)cn1
